Laboratory results reported in ChEMBL document CHEMBL1201862, “PubChem BioAssay data set” (2004).
Where “and” joins values, the source holds several entries; their conditions need not be identical. Identical values can stand only once.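 Exposure lasted 48 hours, with cells grown in 96-well plates and compounds tested at five concentrations. The concentration for 50% growth inhibition is given as GI50.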 Calls of active or inactive are those of the source. No stated cut-off is given here; in the data, active = GI50 up to about 1.1 µM and inactive = higher.

Legend:
Test in all cases: inhibition of tumour cell growth, NCI panel, 48 h
EKVX = test system: EKVX
HOP-92 = test system: HOP-92
UACC-257 = test system: UACC-257
A498 = test system: A498
LOX IMVI = test system: LOX IMVI
NCI-H460 = test system: NCI-H460
A549 = test system: A549
OVCAR-5 = test system: OVCAR-5
Malme-3M = test system: Malme-3M
HCT-116 = test system: HCT-116
NCI/ADR-RES = test system: NCI/ADR-RES
OVCAR-4 = test system: OVCAR-4
NCI-H23 = test system: NCI-H23
SN12C = test system: SN12C
K562 = test system: K562
KM12 = test system: KM12
SW-620 = test system: SW-620
COLO 205 = test system: COLO 205
CAKI-1 = test system: CAKI-1

| Compound | GI50 (EKVX) | GI50 (HOP-92) | GI50 (UACC-257) | GI50 (A498) | GI50 (LOX IMVI) | GI50 (NCI-H460) | GI50 (A549) | GI50 (OVCAR-5) | GI50 (Malme-3M) | GI50 (HCT-116) | GI50 (NCI/ADR-RES) | GI50 (OVCAR-4) | GI50 (NCI-H23) | GI50 (SN12C) | GI50 (K562) | GI50 (KM12) | GI50 (SW-620) | GI50 (COLO 205) | GI50 (CAKI-1) |
| --- | --- | --- | --- | --- | --- | --- | --- | --- | --- | --- | --- | --- | --- | --- | --- | --- | --- | --- | --- |
| CC1=CC(C)C(C)N(CCNS(=O)(=O)c2ccc(C)cc2)c2ccccc21 (centres undefined) | 16.4 µM (inactive) | 18.8 µM (inactive) | 16.1 µM (inactive) | 14.6 µM (inactive) | 10.2 µM (inactive) | 12.8 µM (inactive) | 19.4 µM (inactive) | 18.7 µM (inactive) | 14.1 µM (inactive) | 12.9 µM (inactive) | 15.2 µM (inactive) | 13.3 µM (inactive) | 13.6 µM (inactive) | 12.6 µM (inactive) | 14.7 µM (inactive) | 19.1 µM (inactive) | > 10 µM (inactive) | 12.8 µM (inactive) | 20.4 µM (inactive) |
| Oc1cccc2ccc(SSc3ccc4cccc(O)c4n3)nc12 | 29.3 µM (inactive) | 23 µM (inactive) | 20.2 µM (inactive) | 19.2 µM (inactive) | 18.2 µM (inactive) | 19.3 µM (inactive) | 31 µM (inactive) | 19.4 µM (inactive) | 16 µM (inactive) | 18.2 µM (inactive) | 26.1 µM (inactive) | 16.1 µM (inactive) | 16.9 µM (inactive) | 17.9 µM (inactive) | 29.2 µM (inactive) | 13.7 µM (inactive) | 25.4 µM (inactive) | 18.8 µM (inactive) | 18.5 µM (inactive) |
| O=C(O)CCCC(=O)Nn1c(Cc2ccc(Cl)cc2)n[nH]c1=O | > 100 µM (inactive) | > 100 µM (inactive) | > 100 µM (inactive) | 71.6 µM (inactive) | > 100 µM (inactive) |  | > 100 µM (inactive) | > 100 µM (inactive) | > 100 µM (inactive) | > 100 µM (inactive) | > 100 µM (inactive) | > 100 µM (inactive) | > 100 µM (inactive) | > 100 µM (inactive) | > 100 µM (inactive) | > 100 µM (inactive) | > 100 µM (inactive) | > 100 µM (inactive) | > 100 µM (inactive) |
| CN(C)CCOC1(Cc2ccc(F)cc2)CCC(C(C)(C)C)CC1 (centres undefined) | 11 µM (inactive) and 16 µM (inactive) | 12.2 µM (inactive) | 5.58 µM (inactive) and 4.09 µM (inactive) | 12.6 µM (inactive) and 14.7 µM (inactive) | 2.42 µM (inactive) and 3.2 µM (inactive) | 3.27 µM (inactive) and 2.23 µM (inactive) | 9.77 µM (inactive) and 11.9 µM (inactive) | 7.59 µM (inactive) and 7.85 µM (inactive) | 4.38 µM (inactive) and 2.84 µM (inactive) | 4.39 µM (inactive) and 4.75 µM (inactive) | 12.9 µM (inactive) and 10.6 µM (inactive) |  | 13.3 µM (inactive) and 12 µM (inactive) | 11.3 µM (inactive) and 12 µM (inactive) | 2.03 µM (inactive) and 2.19 µM (inactive) | 5.62 µM (inactive) and 5.02 µM (inactive) | 4.37 µM (inactive) and 7.36 µM (inactive) | 2.03 µM (inactive) and 2.15 µM (inactive) | 6.47 µM (inactive) and 7.69 µM (inactive) |
| COC(=O)[C@@H]1CN(C(=O)c2ccccc2)C(=O)N1 | > 100 µM (inactive) | > 100 µM (inactive) | > 100 µM (inactive) | > 100 µM (inactive) | > 100 µM (inactive) | > 100 µM (inactive) | > 100 µM (inactive) | > 100 µM (inactive) | > 100 µM (inactive) | > 100 µM (inactive) | > 100 µM (inactive) | > 100 µM (inactive) | > 100 µM (inactive) | > 100 µM (inactive) | > 100 µM (inactive) | > 100 µM (inactive) | > 100 µM (inactive) |  | > 10 µM (inactive) |
| Cn1c([C@H](C#N)C(=O)c2cc(O)ccc2[N+](=O)[O-])nc2ccccc21 | > 100 µM (inactive) | > 100 µM (inactive) | > 100 µM (inactive) | > 100 µM (inactive) | > 100 µM (inactive) | > 100 µM (inactive) | > 100 µM (inactive) | > 100 µM (inactive) | 17.2 µM (inactive) | > 100 µM (inactive) | > 100 µM (inactive) | > 100 µM (inactive) | > 100 µM (inactive) | > 100 µM (inactive) |  | > 100 µM (inactive) |  | > 100 µM (inactive) | > 100 µM (inactive) |
| CC1(C)OC(=O)N(c2ccccc2)C12C=Cc1cccc([N+](=O)[O-])c1O2 (centres undefined) | 60.8 µM (inactive) | > 100 µM (inactive) | 47.6 µM (inactive) | 50.2 µM (inactive) | 97.3 µM (inactive) | > 100 µM (inactive) | 79.1 µM (inactive) | > 100 µM (inactive) |  | 67 µM (inactive) | 48.2 µM (inactive) | 56.2 µM (inactive) | 55.3 µM (inactive) | > 100 µM (inactive) | 35.1 µM (inactive) | 58.6 µM (inactive) | > 100 µM (inactive) | 45.1 µM (inactive) | > 100 µM (inactive) |
| Cc1ccc(-c2c3c(n(C4OC(CO)C(O)C(O)C4O)c(=S)c2C#N)CC(C)(C)CC3=O)cc1 (centres undefined) |  | 68.7 µM (inactive) | > 100 µM (inactive) | > 100 µM (inactive) | 48.3 µM (inactive) | 52.2 µM (inactive) | > 100 µM (inactive) | > 100 µM (inactive) | 96.6 µM (inactive) | 40.4 µM (inactive) | > 100 µM (inactive) | > 100 µM (inactive) | > 100 µM (inactive) | > 100 µM (inactive) | 45.2 µM (inactive) | > 100 µM (inactive) | > 100 µM (inactive) | > 10 µM (inactive) | > 100 µM (inactive) |
| CCc1ncc(CO)n1Cc1cccc2ccccc12 | > 100 µM (inactive) | 86.1 µM (inactive) | 81.8 µM (inactive) | > 100 µM (inactive) |  | > 100 µM (inactive) | > 100 µM (inactive) | > 100 µM (inactive) | > 100 µM (inactive) | > 100 µM (inactive) | 50.9 µM (inactive) | > 100 µM (inactive) | > 100 µM (inactive) | > 100 µM (inactive) | > 100 µM (inactive) | 98.2 µM (inactive) | > 100 µM (inactive) | > 100 µM (inactive) | > 100 µM (inactive) |
| COC(=O)[C@@H]1C[C@@H](O)CN1C(=O)c1ccc([N+](=O)[O-])cc1[N+](=O)[O-] | > 100 µM (inactive) | > 100 µM (inactive) | > 100 µM (inactive) | > 100 µM (inactive) | > 100 µM (inactive) | > 100 µM (inactive) | > 100 µM (inactive) | > 100 µM (inactive) |  | > 100 µM (inactive) | > 100 µM (inactive) | > 100 µM (inactive) | > 100 µM (inactive) | > 100 µM (inactive) | > 100 µM (inactive) | > 100 µM (inactive) | > 100 µM (inactive) | 50 µM (inactive) | > 100 µM (inactive) |
| S=C1Cc2c(-c3ccccc3)cc(-c3ccc(Cl)cc3)nc2-c2ccccc2N1 | 2.52 µM (inactive) | 1.72 µM (inactive) | 4.7 µM (inactive) | 1.62 µM (inactive) | 3.41 µM (inactive) | 3.27 µM (inactive) | 3.17 µM (inactive) | 7.45 µM (inactive) | 3.33 µM (inactive) | 1.85 µM (inactive) | 2.38 µM (inactive) | 0.42 µM (active) | 2.88 µM (inactive) | 1.63 µM (inactive) |  | 8.75 µM (inactive) | 2.94 µM (inactive) | 5.57 µM (inactive) | 1.36 µM (inactive) |
